Experiments:
filtration bleb [1] = details: previous rabbit studies; cited from earlier work
patients [2] = details: human, in vivo; cited from earlier work
bleb scarring = details: in vivo; cited from earlier work
ocular fibroblasts = details: cited from earlier work
patients [3] = details: topical ointment postoperatively; cited from earlier work
filtration bleb [4] = assay: Pilot light dosing of topical BPD-MA PDT during filtration surgery (Example 1); assay type: in vivo, rabbit
Description: Filtration surgery was performed on one eye in six normal rabbits. A Weck cell sponge was saturated with a 2 mg/mL aqueous solution of the photosensitizer benzoporphyrin derivative monoacid ring A (BPD-MA, also known as “BPD-verteporfin”). During surgery, the saturated Weck cell was used to apply BPD-MA topically for two minutes to the sclera and conjunctiva in the surgical field. After washing out the excess drug with BSS, both the sclera and conjunctiva were exposed to red light having a wavelength of about 690 nm, which was delivered by a light emitting diode (“LED”) placed at a distance of about 1 cm from the tissue to be irradiated. Each of the six rabbits used in this experiment received a different dose of light, specifically, 0, 3, 6, 12, 18 and 24 J/cm^2 over a 30-second to 4-minute time period. The treated rabbits were followed for 11-12 days after surgery by determining filtration bleb height, bleb vascularity (indicative of inflammation), and reduction in intraocular pressure (“IOP”). The data obtained on day 5 and day 11 are shown below in Tables 1A and 1B respectively.

filtration bleb [5] = assay: Times of PDT administration, full thickness filtration surgery (Example 2); assay type: in vivo, rabbit
Description: The photosensitizer used in the example was prepared as follows: A liposomally formulated benzoporphyrin derivative, monoacid ring A, BPD-MA or BPD-verteporfin was supplied by QLT PhotoTherapeutics, Inc. as a lyophilized powder and was reconstituted with sterile distilled water shortly before use. The BPD was reconstituted to 1.98 mg/mL was used to saturate the 3 mm cut end of a Weck cell. In control groups, the Weck cell was saturated with basic salt solution (“BSS”).
On day 0, full thickness filtration surgery was performed on one randomly selected eye in 48 rabbits, 12 in each of four groups. In each rabbit, the untreated other eye served as a control. The filtration procedure was performed in the following manner: Each animal was anesthetized with a mixture of ketamine and xylazine. A wire speculum was used to separate the eyelids. […] Following creation of the fornix-based flap, the Weck cell saturated with BPD-MA (or BSS placebo) was placed on the sclera posterior to the limbus where the fistula was to be created. The conjunctiva was draped over the Weck Cell. The Weck cell thus rested between the conjunctiva and sclera, also coming into contact with the episclera and Tenon's capsule, for two minutes. The Weck cell was then removed and the area was irrigated with BSS. Instruments and gloves were also rinsed before entering the eye, and a 1.0 mm trephine was used to enter the anterior chamber.
The conjunctival flap was then secured to the limbus using two 7-0 vicryl sutures. […] The light source was used at a maximum output ([…]), which provided a total dosage of approximately 7.2 J.
A drop of tobramycin was then placed into each eye following surgery. Tobramycin and prednisolone acetate were instilled in both eyes four times a day for one week following surgery.
(§1) The control eye received the same photosensitizer and irradiation subconjunctivally as the surgical eye, but without a fistula being created. The control eye was used to test toxicity and as a basis for detecting a decrease in IOP for the surgical eye. The time at which the BPD-MA was applied was varied, as follows:
BPD treatment at 48 hours post surgery consisted of the application of the 3 mm cut end of a Weck cell saturated with a 2 mg/mL aqueous solution of BPD-MA (or placebo) laid on the conjunctiva over the filtration bleb for two minutes, followed by washing out the excess photosensitizer and exposure to red LED light having a wavelength of 688 nm for one minute.
(§2) Postoperatively at day 0 and every two days following surgery, the rabbits were examined with slit lamp biomicroscopy to evaluate filtration bleb extent, filtration bleb height, conjuctival erythema over the bleb, anterior chamber cell flare, and anterior chamber depth. Applanation tonometry to measure IOP following topical anesthesia. A subjective ocular discomfort assessment was also performed by determining animal comfort and eating habits, in accordance with the grading scale shown below:
Bleb survival was assessed by the extent and height of the bleb and by IOP as compared with the control eye. The degree of the inflammatory response was determined by erythema over the filtration bleb and was scored on a scale of 0-3. Rabbits were terminated when bleb failure was noted, i.e., when the intraocular pressure in the surgical eye equaled that of the control eye and the filtration bleb was flat.

control eye = assay: Toxicity: control eye examination and adverse events (Example 2); assay type: in vivo, rabbit; details: for Fibrin clot within the first four days: resolved without sequelae by end of first week
Source text: as §1, §2
In FIGS. 3, 4 and 5, a statistical difference was observed between groups (P ,0.001). The bleb height and extent, as well as other slit lamp characteristics, were analyzed by a chi-square test. Adverse events also were analyzed by a chi-square test. A Cox Proportional Hazard Model was used to evaluate for parameters that most accurately predicted filtration bleb survival on each examination day.

filtration bleb [6] = assay type: in vivo
Description: At day 7, one rabbit from each group and, following bleb failure, two rabbits from each group, were sacrificed to undergo histologic and transmission electron microscopic (“TEM”) analysis. Histologic evaluation was performed after first fixing the cadaver eyes with 10% buffered neutral formalin. The eyes were processed, sectioned, and then stained with hematoxylin and eosin, as well as Masson's Trichrome. The specimens were examined in a masked fashion by an independent observer.
Transmission electron microscopy was performed by fixing tissue samples in 2.5% glutaraldehyde buffered with 0.1 M cacodylate containing 7% sucrose. Tissues were post fixed for one hour with 2% osmium tetroxide and dehydrated through graded alcohol concentrations to 100% ethanol. The 2×5 mm tissue blocks were then infiltrated with catalyzed epoxy resin. Thick sections (0.5 μm) were cut and stained with toluidine blue and examined by light microscopy to determine appropriate areas. Thin section (80 nm) were then cut, picked up on copper grids, and stained with uranyl acetate and lead citrate for TEM evaluation. A Hitachi H7000 transmission electron microscope was used to examine these sections.

[7] = postoperative day 5, irradiation time 30 seconds
[8] = postoperative day 5, irradiation time 1 minute
[9] = postoperative day 5, irradiation time 2 minutes
[10] = postoperative day 5, irradiation time 3 minutes
[11] = postoperative day 11, irradiation time 30 seconds
[12] = postoperative day 11, irradiation time 1 minute
[13] = postoperative day 11, irradiation time 2 minutes
[14] = postoperative day 11, irradiation time 3 minutes
[15] = day 7, eyes that received BPD at surgery

## CO[C@@]12[C@H](COC(N)=O)C3=C(C(=O)C(C)=C(N)C3=O)N1C[C@@H]1N[C@@H]12 [Mitomycin-C]
Filtration bleb [1]
  Filtration Bleb Survival (mean days ± SD): 34.8 ± 28.8 days
  Filtration Bleb Survival [range]: 6 to 23.2 days
Patients [2]
  Ocular hypotony (IOP less than 5 or 6 mm Hg), fraction of patients treated: ⅓
  Probability of late-onset bleb leaks: around 25%

## CC(C)(S)[C@@H](N)C(=O)O [D-penicillamine]
Bleb scarring
  Potency in animal studies: only limited potency

## O=c1[nH]c(=O)n([C@H]2C[C@H](O)[C@@H](CO)O2)cc1F [floxuridine]
Ocular fibroblasts
  Potency relative to fluorouracil in long-term inhibition of ocular fibroblasts: about 100 times

## Nc1ncnc2c1ncn2[C@@H]1O[C@H](CO)[C@@H](O)[C@@H]1O [Ara-A]
Filtration bleb [1]
  Filtration Bleb Survival (mean days ± SD): 15.2 ± 1.8 days

## N#CCCN [BAPN, Beta-aminopropionitrite]
Bleb scarring
  Potency in animal studies: only limited potency
Patients [3]
  Patients with IOP kept below 22 mm Hg: 74%

## benzoporphyrin derivative monoacid ring A [BPD-MA]
Filtration bleb [4]; light doses 0-24 J/cm^2
  Survival of the filtration bleb versus light dose: longest in eyes treated with light at a medium range of doses
Filtration bleb [4]; [7]
  Bleb Height: Small
  Bleb Vascularity: Vascular
Filtration bleb [4]; postoperative day 5, irradiation time 30 seconds, 2 mg/mL topical 2 min, 690 nm light
  IOP Decrease: Minimal
Filtration bleb [4]; [8]
  Bleb Height: Maximum
  Bleb Vascularity: Avascular
Filtration bleb [4]; postoperative day 5, irradiation time 1 minute, 2 mg/mL topical 2 min, 690 nm light
  IOP Decrease: >20 mm Hg
Filtration bleb [4]; [9]
  Bleb Height: Maximum
  Bleb Vascularity: Avascular'
Filtration bleb [4]; postoperative day 5, irradiation time 2 minutes, 2 mg/mL topical 2 min, 690 nm light
  IOP Decrease: 20 mm Hg
Filtration bleb [4]; [10]
  Bleb Height: Small
  Bleb Vascularity: Vascular
Filtration bleb [4]; postoperative day 5, irradiation time 3 minutes, 2 mg/mL topical 2 min, 690 nm light
  IOP Decrease: 2.5 mm Hg
Filtration bleb [4]; postoperative day 5, irradiation time 4 minutes
  Bleb Vascularity: Vascular
Filtration bleb [4]; postoperative day 5, irradiation time 4 minutes, 2 mg/mL topical 2 min, 690 nm light
  IOP Decrease: 0-4 mm Hg
Filtration bleb [4]; [11]
  Bleb Height: Minimal
  Bleb Vascularity: Vascular
  IOP Decrease: 2.3 mm Hg
Filtration bleb [4]; [12]
  Bleb Height: Maximum
  Bleb Vascularity: Avascular
  IOP Decrease: >20 mm Hg
Filtration bleb [4]; [13]
  Bleb Height: Maximum
  Bleb Vascularity: Avascular'
  IOP Decrease: >20 mm Hg
Filtration bleb [4]; [14]
  Bleb Height: Low
  Bleb Vascularity: Vascular
  IOP Decrease: 3-4 mm Hg
Filtration bleb [4]; postoperative day 11, irradiation time 4 minutes
  Bleb outcome (rabbit sacrificed): bleb failure
Filtration bleb [5]; BPD and light at relatively low doses, especially during surgery
  Inflammatory response (erythema over the bleb): prevented the development of inflammation
Filtration bleb [5]; BPD and light during surgery (Groups 2 and 4)
  Bleb survival in comparison with placebo control or treatment only at 48 hours: prolonged bleb survival
Filtration bleb [5]; BPD given intraoperatively, P=0.057
  IOP (ANOVA): trend toward lower IOP
Filtration bleb [5]; Group 2: BPD treatment during surgery, placebo 48 hours post surgery
  Mean (±SD) filtration bleb survival time: 23.8 ± 12 days
Filtration bleb [5]; Group 3 (BPD only at 48 hours), FIG. 5
  Erythema over the bleb: higher inflammatory response
Filtration bleb [5]; Group 3: placebo during surgery, BPD treatment 48 hours post surgery
  Mean (±SD) filtration bleb survival time: 10.1 ± 9 days
Filtration bleb [5]; Group 4
  Effect of second treatment with BPD and light at 48 hours: did not appear to have any additional effect
Filtration bleb [5]; Group 4: BPD treatment during surgery and 48 hours post surgery
  Mean (±SD) filtration bleb survival time: 23.2 ± 8 days
Filtration bleb [5]; up to 12 days postoperatively, FIG. 3, FIG. 4
  Extent and height of the bleb: indicated the effectiveness of low-dose PDT treatment during surgery
Filtration bleb [5]; versus Table 2 literature values
  Filtration bleb survival compared to previous rabbit studies: prolonged the filtration bleb survival compared to normal controls, Ara-A and 5-fluorouracil
Filtration bleb [5]; versus literature
  Life of the filtration bleb compared with mitomycin C studies: longer that in some rabbits who received mitomycin C
Control eye; Group 2
  Fibrin clot within the first four days: three
Control eye; Group 3
  Fibrin clot within the first four days: three
Control eye; all groups
  Adverse events: few and not related specifically to the use of the photosensitizer
Control eye; control eye, P>0.05
  Anterior segment ocular exam of control eye, placebo versus BPD-treated: no differences between the placebo and BPD-treated eyes
Filtration bleb [6]; day 7, BPD only at day 2 (Group 3)
  Light microscopy of filtering bleb: increased lymph channels in addition to the fibroblasts, but no vascular proliferation
Filtration bleb [6]; [15]
  Light microscopy of filtering bleb: fibroblasts, vessels, lymph channels: no fibroblasts, vascular increase or lymphocytic channel increase
  Light microscopy of filtering bleb: lymphocytic response: mild lymphocytic response
Filtration bleb [6]; end of the study (three weeks postoperatively)
  Histology of eye fistulas: only a few lymphocytes and no proliferation of blood vessels at the fistula
Filtration bleb [6]; rabbit, in vivo
  Epithelium finding: thinned epithelium
Filtration bleb [6]; surgical or control eye
  Histologic and transmission electron microscopic analysis for toxicity: no evidence of toxicity or inflammation apart from the filtration site

## Bleomycin
Filtration bleb [1]
  Filtration Bleb Survival (mean days ± SD): 25.5 ± 14.5 days
  Filtration Bleb Survival [range]: 21 to 50 days

## O=c1[nH]cc(F)c(=O)[nH]1 [5-Fluorouracil]
Filtration bleb [1]
  Filtration Bleb Survival (mean days ± SD): 19.5 ± 5.5 days
  Filtration Bleb Survival [range]: 14 to 25 days

From patent US6677366B2, “Methods, compositions and articles for reducing or preventing the effects of inflammation” (QLT Inc., priority 1997, dated 2004)
